Test [1] concerns renovascular hypertensive rats. As to the kind of experiment: Effect on reducing blood pressure of renovascular hypertensive rats by single oral administration. Format: in vivo, Wistar rats. Particulars: for change in vivo at 0.5 mg/kg / inhibition in vivo at 0.5 mg/kg / change in vivo at 1 mg/kg / inhibition in vivo at 1 mg/kg / change in vivo at 2 mg/kg / inhibition in vivo at 2 mg/kg: Rattus norvegicus, single oral administration; for change in vivo at 0.5 mg/kg / change in vivo at 1 mg/kg / change in vivo at 2 mg/kg: RHR, read-out: Variations on heart rate; for inhibition in vivo at 0.5 mg/kg / inhibition in vivo at 1 mg/kg / inhibition in vivo at 2 mg/kg: two-kidney one-clip RHR, measured 1-10 h, read-out: Maximum blood pressure reduction; for blood pressure reduction effect compared with Azilsartan medoxomil: renal artery-ligated rat, result in words.

For test [2], the system named is normal rats. Put plainly: Effect on blood pressure of normal rats by single oral administration. Format: in vivo, Wistar rats. Particulars: Rattus norvegicus, po, single, normal rats; for inhibition in vivo at 0.5 mg/kg / inhibition in vivo at 1 mg/kg / inhibition in vivo at 2 mg/kg: 8 h, read-out: blood pressure reduction at 8 h after the administration; for inhibition in vivo at 0.5 mg/kg / change in vivo at 0.5 mg/kg: 0.5 mg/kg p.o.; for inhibition in vivo at 1 mg/kg / change in vivo at 1 mg/kg: 1.0 mg/kg p.o.; for inhibition in vivo at 2 mg/kg / change in vivo at 2 mg/kg: 2.0 mg/kg p.o.; for change in vivo at 0.5 mg/kg / change in vivo at 1 mg/kg / change in vivo at 2 mg/kg: read-out: variations on heart rate.

Molecules are shown by their SMILES.

As for `CCOc1nc2cccc(C(=O)ONC(=N)Nc3ccccc3)c2n1Cc1ccc(-c2ccccc2-c2noc(=O)[nH]2)cc1` [QR01012], in test [1], the change in vivo at 0.5 mg/kg is 2%, the inhibition in vivo at 0.5 mg/kg came to 17 ± 3.7%, the change in vivo at 1 mg/kg was -3 ± 4% and the inhibition in vivo at 1 mg/kg was found to be 22 ± 1%. In addition, in test [1], the change in vivo at 2 mg/kg was -5 ± 2% and the inhibition in vivo at 2 mg/kg stood at 27 ± 2.8%. For the same compound, in test [2], the inhibition in vivo at 0.5 mg/kg worked out at 1.9 ± 3.2%, the inhibition in vivo at 1 mg/kg is 3.9 ± 2.1%, the inhibition in vivo at 2 mg/kg is 4.6 ± 2.4% and the change in vivo at 0.5 mg/kg was determined as 1%. For the same compound, in test [2], the change in vivo at 1 mg/kg was -3 ± 2% and the change in vivo at 2 mg/kg is -3 ± 4%.

Take `CCOc1nc2cccc(C(=O)OCCCCOc3no[n+]([O-])c3S(=O)(=O)c3ccccc3)c2n1Cc1ccc(-c2ccccc2-c2noc(=O)[nH]2)cc1` [QR01011]: in test [1], the change in vivo at 0.5 mg/kg is -5 ± 3%, the inhibition in vivo at 0.5 mg/kg amounted to 16 ± 4.3%, the change in vivo at 1 mg/kg is -8 ± 6% and the inhibition in vivo at 1 mg/kg came out at 28 ± 1.3%. Also, in test [1], the change in vivo at 2 mg/kg is -6 ± 4%, the inhibition in vivo at 2 mg/kg stood at 29 ± 4% and the “blood pressure reduction effect compared with Azilsartan medoxomil” value (from here on “blood pressure reduction effect”) is given as “close to that of Azilsartan medoxomil”. In addition, in test [2], the inhibition in vivo at 0.5 mg/kg was 2.7 ± 3.6%, the inhibition in vivo at 1 mg/kg worked out at 3.8 ± 2.1%, the inhibition in vivo at 2 mg/kg was 3.7 ± 5% and the change in vivo at 0.5 mg/kg was -3 ± 5%. Moreover, in test [2], the change in vivo at 1 mg/kg was 6% and the change in vivo at 2 mg/kg is -5 ± 3%.

`CCOc1nc2cccc(C(=O)OCc3nc(C)c(C)nc3C)c2n1Cc1ccc(-c2ccccc2-c2noc(=O)[nH]2)cc1` [QR01006]: in test [1], the change in vivo at 0.5 mg/kg was -4 ± 2%, the inhibition in vivo at 0.5 mg/kg came to 14 ± 3.4%, the change in vivo at 1 mg/kg is -5 ± 3% and the inhibition in vivo at 1 mg/kg was found to be 18 ± 3.6%. In addition, in test [1], the change in vivo at 2 mg/kg is -5 ± 3% and the inhibition in vivo at 2 mg/kg is 24 ± 4.1%. In test [2], the inhibition in vivo at 0.5 mg/kg was 6.3 ± 2.8%, the inhibition in vivo at 1 mg/kg amounted to 7.2 ± 1.9%, the inhibition in vivo at 2 mg/kg came out at 4.2 ± 2.1% and the change in vivo at 0.5 mg/kg was -3 ± 4%. Further, in test [2], the change in vivo at 1 mg/kg came out at 2% and the change in vivo at 2 mg/kg was -5 ± 6%.

With `CCOc1nc2cccc(C(=O)OCc3c(C)no[n+]3[O-])c2n1Cc1ccc(-c2ccccc2-c2noc(=O)[nH]2)cc1` [QR01025], in test [1], the change in vivo at 0.5 mg/kg came to 4 ± 6%, the inhibition in vivo at 0.5 mg/kg is 18 ± 3.4%, the change in vivo at 1 mg/kg is -7 ± 5% and the inhibition in vivo at 1 mg/kg is 22 ± 4.5%. In addition, in test [1], the change in vivo at 2 mg/kg is -7 ± 3% and the inhibition in vivo at 2 mg/kg came out at 28 ± 3.2%. Besides, in test [2], the inhibition in vivo at 0.5 mg/kg stood at 3.3 ± 3.2%, the inhibition in vivo at 1 mg/kg came to 6.2 ± 3.8%, the inhibition in vivo at 2 mg/kg turned out to be 3.7 ± 4.1% and the change in vivo at 0.5 mg/kg is -2 ± 3%. In addition, in test [2], the change in vivo at 1 mg/kg is 6% and the change in vivo at 2 mg/kg was -3 ± 4%.

As to `CCOc1nc2cccc(C(=O)OCOC(=O)OCc3ccno3)c2n1Cc1ccc(-c2ccccc2-c2noc(=O)[nH]2)cc1` [QR01030], in test [1], the change in vivo at 0.5 mg/kg was -12 ± 6%, the inhibition in vivo at 0.5 mg/kg came out at 18 ± 2%, the change in vivo at 1 mg/kg is -20 ± 6% and the inhibition in vivo at 1 mg/kg was 25 ± 3.6%. Further, in test [1], the change in vivo at 2 mg/kg is -18 ± 7% and the inhibition in vivo at 2 mg/kg was 30 ± 4.6%. Moreover, in test [2], the inhibition in vivo at 0.5 mg/kg was 2.9 ± 3%, the inhibition in vivo at 1 mg/kg turned out to be 5.2 ± 4.3%, the inhibition in vivo at 2 mg/kg stood at 3.7 ± 5.8% and the change in vivo at 0.5 mg/kg is -2 ± 4%. Also, in test [2], the change in vivo at 1 mg/kg was 4% and the change in vivo at 2 mg/kg was -3 ± 5%.

As for `CCOc1nc2cccc(C(=O)OCOC(=O)OCc3ccn(C)c3)c2n1Cc1ccc(-c2ccccc2-c2noc(=O)[nH]2)cc1` [QR01032], in test [1], the change in vivo at 0.5 mg/kg is -8 ± 6%, the inhibition in vivo at 0.5 mg/kg was determined as 20 ± 4.1%, the change in vivo at 1 mg/kg was -9 ± 4% and the inhibition in vivo at 1 mg/kg was found to be 28 ± 3.1%. Besides, in test [1], the change in vivo at 2 mg/kg was -9 ± 5%, the inhibition in vivo at 2 mg/kg came to 35 ± 4.6% and the “blood pressure reduction effect” value is reported as “close to that of Azilsartan medoxomil”. Moreover, in test [2], the inhibition in vivo at 0.5 mg/kg was 4.7 ± 3.1%, the inhibition in vivo at 1 mg/kg came to 5.2 ± 2.7%, the inhibition in vivo at 2 mg/kg was 4.8 ± 3.6% and the change in vivo at 0.5 mg/kg is -8 ± 6%. Moreover, in test [2], the change in vivo at 1 mg/kg is -5 ± 2% and the change in vivo at 2 mg/kg was -3 ± 5%.

`CCOc1nc2cccc(C(=O)OC3CCc4c3no[n+]4[O-])c2n1Cc1ccc(-c2ccccc2-c2noc(=O)[nH]2)cc1` (stereo not shown) [QR01035]: in test [1], the change in vivo at 0.5 mg/kg was -14 ± 6%, the inhibition in vivo at 0.5 mg/kg came out at 20 ± 3.1%, the change in vivo at 1 mg/kg was -23 ± 6% and the inhibition in vivo at 1 mg/kg came out at 28 ± 4.5%. In test [1], the change in vivo at 2 mg/kg is -26 ± 5%, the inhibition in vivo at 2 mg/kg amounted to 36 ± 4.6% and the “blood pressure reduction effect” value is given as “close to that of Azilsartan medoxomil”. Further, in test [2], the inhibition in vivo at 0.5 mg/kg stood at 6.4 ± 2.1%, the inhibition in vivo at 1 mg/kg was found to be 3.4 ± 2.5%, the inhibition in vivo at 2 mg/kg was 6.1 ± 3.8% and the change in vivo at 0.5 mg/kg is -4 ± 3%. Also, in test [2], the change in vivo at 1 mg/kg is -3 ± 3% and the change in vivo at 2 mg/kg worked out at 6%.

Regarding `CCOc1nc2cccc(C(=O)Oc3ccc(OCc4c(-c5ccccc5)no[n+]4[O-])cc3)c2n1Cc1ccc(-c2ccccc2-c2noc(=O)[nH]2)cc1` [QR01010], in test [1], the change in vivo at 0.5 mg/kg is 5%, the inhibition in vivo at 0.5 mg/kg came to 21 ± 4.7%, the change in vivo at 1 mg/kg is -3 ± 1% and the inhibition in vivo at 1 mg/kg came out at 26 ± 5.4%. Moreover, in test [1], the change in vivo at 2 mg/kg was -5 ± 3% and the inhibition in vivo at 2 mg/kg came to 30 ± 3.6%. For the same compound, in test [2], the inhibition in vivo at 0.5 mg/kg amounted to 2.1 ± 3.2%, the inhibition in vivo at 1 mg/kg came to 4.6 ± 4.7%, the inhibition in vivo at 2 mg/kg amounted to 5.7 ± 2.3% and the change in vivo at 0.5 mg/kg turned out to be 5%. For the same compound, in test [2], the change in vivo at 1 mg/kg is -5 ± 1% and the change in vivo at 2 mg/kg was -4 ± 5%.

With `CCOc1nc2cccc(C(=O)OC(C)OC(=O)OCc3ccn(C)c3)c2n1Cc1ccc(-c2ccccc2-c2noc(=O)[nH]2)cc1` (stereo not shown) [QR01033], in test [1], the change in vivo at 0.5 mg/kg is -8 ± 2%, the inhibition in vivo at 0.5 mg/kg worked out at 19 ± 2.1%, the change in vivo at 1 mg/kg is -15 ± 6% and the inhibition in vivo at 1 mg/kg was 26 ± 3.7%. Further, in test [1], the change in vivo at 2 mg/kg was -19 ± 7% and the inhibition in vivo at 2 mg/kg stood at 32 ± 4%. Moreover, in test [2], the inhibition in vivo at 0.5 mg/kg is 2.3 ± 3.2%, the inhibition in vivo at 1 mg/kg was determined as 6.4 ± 2.9%, the inhibition in vivo at 2 mg/kg came out at 4.2 ± 5% and the change in vivo at 0.5 mg/kg is -3 ± 4%. Further, in test [2], the change in vivo at 1 mg/kg is -5 ± 3% and the change in vivo at 2 mg/kg was -1 ± 7%.

With `CCOC(=O)C(=O)OC(C)C(=O)COC(=O)c1cccc2nc(OCC)n(Cc3ccc(-c4ccccc4-c4noc(=O)[nH]4)cc3)c12` (stereo not shown) [QR01015], in test [1], the change in vivo at 0.5 mg/kg turned out to be 4%, the inhibition in vivo at 0.5 mg/kg turned out to be 10 ± 1.5%, the change in vivo at 1 mg/kg is 2% and the inhibition in vivo at 1 mg/kg was determined as 12 ± 2%. In test [1], the change in vivo at 2 mg/kg was 3% and the inhibition in vivo at 2 mg/kg amounted to 18 ± 3.5%. Also, in test [2], the inhibition in vivo at 0.5 mg/kg is 3.7 ± 2.6%, the inhibition in vivo at 1 mg/kg was found to be 2.3 ± 1.8%, the inhibition in vivo at 2 mg/kg came out at 1.8 ± 2.4% and the change in vivo at 0.5 mg/kg was 3%. For the same compound, in test [2], the change in vivo at 1 mg/kg stood at 1% and the change in vivo at 2 mg/kg is -3 ± 3%.

As to `CCOc1nc2cccc(C(=O)OCCCCO[N+](=O)[O-])c2n1Cc1ccc(-c2ccccc2-c2noc(=O)[nH]2)cc1` [QR01008], in test [1], the change in vivo at 0.5 mg/kg is -8 ± 5%, the inhibition in vivo at 0.5 mg/kg is 17 ± 3.1%, the change in vivo at 1 mg/kg is -15 ± 3% and the inhibition in vivo at 1 mg/kg was determined as 28 ± 3.4%. In test [1], the change in vivo at 2 mg/kg is -18 ± 5%, the inhibition in vivo at 2 mg/kg was 35 ± 3.4% and the “blood pressure reduction effect” value is “close to that of Azilsartan medoxomil”. Besides, in test [2], the inhibition in vivo at 0.5 mg/kg turned out to be 4.5 ± 2.7%, the inhibition in vivo at 1 mg/kg stood at 4.6 ± 2.5%, the inhibition in vivo at 2 mg/kg is 2.1 ± 2.4% and the change in vivo at 0.5 mg/kg was -6 ± 2%. In test [2], the change in vivo at 1 mg/kg worked out at 4% and the change in vivo at 2 mg/kg is -2 ± 3%.

The values are drawn from US9708306B2, “Benzimidazole derivatives and preparation process and pharmaceutical uses thereof” (WUHAN LL SCIENCE AND TECHNOLOGY DEVELOPMENT CO., LTD, priority 2015, dated 2017).
